Source: US20060014826A1, “Dioxocyclohexane carboxylic acid phenyl amide derivatives for modulating voltage-gated potassium channels and pharmaceutical compositions containing the same” (Wyeth, priority 2004, published 2006)

Experiments:
[1] = test system: mouse 4-Plate model (punished crossings); test: Anxiolytic activity, mouse 4-Plate model; format: in vivo, male Swiss Webster mice
Protocol: Anxiolytic activity of the compounds of this invention was determined using the mouse 4-Plate model, originally described by Boissier et al. (Eur. J. Pharmacol. (1968) 4:145-151). The test procedure used is described in further detail below. Anxiolytic efficacy is measured as the ability of the test compound to increase the number of times that an animal will accept a mild punishment (in the form of a foot shock) in order to explore its environment. A number of clinically effective treatments for anxiety from multiple pharmacological classes are effective in this model (Hascoet et al., Pharmacol. Biochem. Beh. (2000) 65:339-344).
The compound of Example 8 was examined in the 4-Plate model.
Experimental Protocol for the 4-Plate Model
The “four-plate” apparatus consisted of a Plexiglas cage (18×25×16 cm) floored by four identical rectangular metal plates (8×11 cm) separated from one another by a gap of 4 mm. The plates were connected to a device that generated electric shocks (0.8 mA, 0.5 sec). […] Test animals (male Swiss Webster mice) were group housed with ad-lib access to food and water. Compounds were administered at the appropriate dose ip. 30 min prior to testing. Control animals were given the vehicle without drug. Animals were then placed in the 4-plate apparatus and allowed to habituate for 18 seconds. Following the 18-sec habituation period, an electric shock (0.8 mA, 0.5 sec) was delivered to the mouse when crossing from one plate to another. No shocks were delivered during the 3 seconds following shock administration. The number of punished crossings was recorded during a 1-min testing period. Data were expressed as the percent change in the number of punished crossings relative to control.

[2] = biological target: T1, human Kv1.1/Kvβ1 potassium ion channel complex (Homo sapiens, UniProt Q09470+Q14722); test: Inhibiting the inactivation of Kv1.1/Kvβ1 potassium ion channel complex, voltage clamp current recordings in Xenopus oocytes; format: cell-based; conditions: relative to control oocytes without test compound, read-out: Percent Increase in Steady State Current (@ concentration shown in parentheses)
T1 construct: expressed in transfected cells; host or cells: Xenopus oocytes injected with cRNA
Protocol: Compounds useful in this invention were examined for their ability to inhibit the inactivation of the human Kv1.1/Kvβ1 potassium ion channel complex in vitro using electrophysiological current recordings on inactivating Kv1.1/Kvβ1channels expressed in Xenopus oocytes. The following procedure was used.
Xenopus oocytes were harvested from frogs under general anesthesia using aseptic techniques. Oocytes were treated with 2 mg/ml collagenase for 1-1.5 hr, defolliculated, and injected with 40 nL cRNA (a mixture of hKv1.1 and hKvβ1) produced using standard molecular biological techniques (Sambrook, et al., 1989, Molecular Cloning: A Laboratory Manual). The concentration of hKv1.1/hKvβ1 cRNA varies, but was generally about 50 ng/μL hKv1.1 and […] hkβ1.
Currents were recorded using standard voltage clamp amplifiers at room temperature. Recordings were performed in the bath solution “ND-96” containing 96 mM NaCl, 2 mM KCl, 1 mm CaCl2, 1 mM MgCl2, 10 mM HEPES and […] Gentamycin (pH=7.6). The pipette (electrode) solution generally consisted of 3 mM KCl. Electrodes were made from WPI TW150F-4 borosilicate glass (or equivalent) and typically had resistances of 0.5-1.5 Mohms. The standard current—voltage (IV) pulse protocol consisted of voltage steps from −60 mV to +50 mV, in 10 mV increments for 200 ms, at a frequency of one IV set per 2 minutes. Data were digitized and analyzed by standard software packages.
Test compounds where first dissolved in DMSO to an initial concentration of 1-100 mM. Working dilutions of 1:2000 to 1:500 were made in the bath solution for final concentrations in the micromolar range. The bath solutions containing the test compounds were applied by bath perfusion using gravity or pump-driven flow. A minimum of 2 mL (10 times the bath volume) over 3 minutes were flowed for each compound concentration tested. Data were averaged across at least 3 cells tested for each concentration.
Test compounds were examined for their ability to inhibit the inactivation of the steady state portion of the IV curve.

[3] = test system: seizures induced by administration of pentylenetetrazole (PTZ); test: Inhibiting PTZ induced seizures; format: in vivo; conditions: Mus musculus; adult mice, i.p. pretreatment 30 min before PTZ 85 mg/kg s.c., 30 minute test period; read-out: ED50, Dose Range
Protocol: Compounds useful in this invention were also examined for their anticonvulsant activity in vivo by assessing their ability to inhibit the seizures induced by administration of pentylenetetrazole (PTZ). Adult mice were pretreated intraperitoneally with the test compound. Thirty minutes later these animals were challenged with pentylenetetrazole (85 mg/kg, s.c.) and observed for onset of seizures during a 30 minute test period.

T1 sequence (Q09470 whole entry): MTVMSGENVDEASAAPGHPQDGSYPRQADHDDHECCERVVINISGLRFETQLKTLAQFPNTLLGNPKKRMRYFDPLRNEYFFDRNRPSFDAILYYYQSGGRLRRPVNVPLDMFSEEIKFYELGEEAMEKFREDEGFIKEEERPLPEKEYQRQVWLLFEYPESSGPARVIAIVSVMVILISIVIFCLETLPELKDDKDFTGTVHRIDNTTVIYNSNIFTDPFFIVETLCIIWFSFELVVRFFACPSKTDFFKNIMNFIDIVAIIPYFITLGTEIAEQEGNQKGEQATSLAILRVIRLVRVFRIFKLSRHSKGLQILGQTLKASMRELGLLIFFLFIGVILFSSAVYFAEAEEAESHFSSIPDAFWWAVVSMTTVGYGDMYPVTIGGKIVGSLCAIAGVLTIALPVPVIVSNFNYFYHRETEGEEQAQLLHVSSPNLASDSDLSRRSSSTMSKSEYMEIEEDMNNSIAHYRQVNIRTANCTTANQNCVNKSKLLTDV
T1 sequence (Q14722 whole entry): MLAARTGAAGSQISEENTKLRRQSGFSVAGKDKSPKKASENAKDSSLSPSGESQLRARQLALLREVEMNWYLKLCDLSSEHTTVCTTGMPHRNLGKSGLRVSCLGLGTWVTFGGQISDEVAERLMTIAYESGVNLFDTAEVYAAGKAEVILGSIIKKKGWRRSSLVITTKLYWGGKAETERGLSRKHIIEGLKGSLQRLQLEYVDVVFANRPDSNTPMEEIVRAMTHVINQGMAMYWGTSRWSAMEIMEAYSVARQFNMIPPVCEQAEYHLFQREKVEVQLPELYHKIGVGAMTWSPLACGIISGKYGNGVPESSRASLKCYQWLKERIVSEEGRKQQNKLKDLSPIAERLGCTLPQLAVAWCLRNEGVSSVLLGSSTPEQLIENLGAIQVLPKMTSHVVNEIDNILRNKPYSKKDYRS

| Compound | activation at 100 µM [2] | ED50 [3] | melting point | activation at 50 µM [2] | also measured |
| --- | --- | --- | --- | --- | --- |
| Cc1nnc2n1-c1ccc(Cl)cc1C(c1ccccc1)=NC2 [Alprazolam, reference compound] |  |  |  |  | Punished crossings (% of control) ([1]; 0.3 mg/kg ip., 30 min prior to testing): 170%; increase in the number of punished crossings ([1]; at therapeutically relevant doses): 70% |
| CC1(C)CC(=O)C(C(=O)Nc2ccc(Cl)c(Cl)c2)C(=O)C1 [Example 2, N-(3,4-dichlorophenyl)-4,4-dimethyl-2,6-dioxocyclohexanecarboxamide] | 75% | 50 mg/kg | 124 to 129 °C |  |  |
| CC1(C)CC(=O)C(C(=O)Nc2cccc(C(F)(F)F)c2)C(=O)C1 [Example 8, N-(3-trifluoromethylphenyl)-4,4-dimethyl-2,6-dioxocyclohexanecarboxamide] | 40% | 32 mg/kg | 116 to 117 °C |  | increase in the number of punished crossings ([1]; 56 mg/kg ip): 31%; % Time Spent in Open Zones (Relative to Control) ([1]; 60 mg/kg ip., 30 min prior to testing): 131% |
| CC1(C)CC(=O)C(C(=O)Nc2cc(C(F)(F)F)cc(C(F)(F)F)c2)C(=O)C1 [Example 9, N-[3,5-bis(trifluoromethyl)phenyl]-4,4-dimethyl-2,6-dioxocyclohexanecarboxamide] |  | 55 mg/kg |  | 20% |  |
| CC1(C)CC(=O)C(C(=O)Nc2cccc(Cl)c2)C(=O)C1 [Example 1, N-(3-chlorophenyl)-4,4-dimethyl-2,6-dioxocyclohexanecarboxamide] | 21% | 30 mg/kg | 89 to 91 °C |  |  |
| CC1(C)CC(=O)C(C(=O)Nc2cccc(C(F)(F)F)c2)C(=O)O1 (stereo not drawn) [Example 21, N-[3-(trifluoromethyl)phenyl]-6,6-dimethyl-2,4-dioxotetrahydro-2H-pyran-3-carboxamide] |  |  | 149.6 to 150.1 °C | 13% |  |
| CC(C)C1CC(=O)C(C(=O)Nc2ccc(Cl)c(Cl)c2)C(=O)C1 (stereo not drawn) [Example 10, N-(3,4-dichlorophenyl)-4-isopropyl-2,6-dioxocyclohexanecarboxamide] |  |  | 138 °C | 38% |  |
| CC1(C)CC(=O)C(C(=S)Nc2ccc(Cl)c(C(F)(F)F)c2)C(=O)C1 [Example 4, N-[4-chloro-3-(trifluoromethyl)phenyl]-4,4-dimethyl-2,6-dioxocyclohexane-carbothioamide] |  |  | 101 to 102 °C |  | activation at 300 µM ([2]; 300 μm): 9% |
